Results: patent US7863337B2, “Use of triacontanol in preparation of medicaments for treatment of cancers” (priority 2006, dated 2011)
Each block holds one molecule with its values, some of them ahead of it.

Experiments:
murine hepatoma H22 [1] = test: Curative effect test against murine hepatoma H22 by gavaging a thixotropic oil suspension of triacontanol; assay type: in vivo, mice
Method: (§1) Experiment method: […] of the tumor models of murine hepatoma H22, intestinal cancer C26 and Lewis lung cancer by hypodermic inoculating in the murine in vivo
(§2) A cancer cell suspension is prepared from the tumor source by homogenate technique, and then is inoculated subcutaneously under the armpit. After 24 hours, medication is administrated according to a predesigned scheme, and finally, an inhibition rate statistic against the tumor is obtained by comparing with a negative control group.

murine hepatoma H22 [2] = test: Curative effect test against murine hepatoma H22 (inoculated under the armpit) by gavaging a triacontanol oil agent; assay type: in vivo, mice
Method: as §1, §2

[3] = Effect to the thymus index and spleen index of murine by gavaging a triacontanol oil agent; assay type: in vivo; settings: tumor-bearing mice
Lewis lung cancer = test: Curative effect test against murine Lewis lung cancer (hypodermically inoculated) by intravenous administration of a triacontanol emulsion; assay type: in vivo, mice; settings: 7 mg/kg/d
Method: as §1, §2

intestinal cancer C26 = test: Curative effect test against murine intestinal cancer C26 (hypodermically inoculated) by gavaging a 352B oil agent; assay type: in vivo, mice; settings: 7 mg/kg/d
Method: as §1, §2

[4] = 100 mg/kg (middle dosage), gavage
[5] = 150 mg/kg (high dosage), gavage
[6] = ipx2, vs negative control group

- Weight (g) After administration (murine hepatoma H22 [2]; 50 mg/kg (low dosage), gavage): 23.51 ± 1.99 g
- Weight (g) After administration (murine hepatoma H22 [2]; [4]): 23.20 ± 2.86 g
- Weight (g) After administration (murine hepatoma H22 [2]; [5]): 23.52 ± 2.36 g
- Spleen index (mg/10 g body weight) ([3]; 50 mg/kg (low dosage), gavage): 67.1 ± 13.7 mg/10 g body weight
- Thymus index (mg/10 g body weight) ([3]; 50 mg/kg (low dosage), gavage): 45 ± 6.72 mg/10 g body weight
- Weight of spleen ([3]; 50 mg/kg (low dosage), gavage): 153.52 ± 35.62 mg
- Weight of thymus ([3]; 50 mg/kg (low dosage), gavage): 102.14 ± 15.90 mg
- Spleen index (mg/10 g body weight) [3, 4]: 62.1 ± 17.5 mg/10 g body weight
- Thymus index (mg/10 g body weight) [3, 4]: 38.7 ± 8.08 mg/10 g body weight
- Weight of spleen [3, 4]: 139.98 ± 41.62 mg
- Weight of thymus [3, 4]: 86.87 ± 16.44 mg
- Spleen index (mg/10 g body weight) [3, 5]: 65.7 ± 12.3 mg/10 g body weight
- Thymus index (mg/10 g body weight) [3, 5]: 37.7 ± 6.73 mg/10 g body weight
- Weight of spleen [3, 5]: 151.26 ± 32.16 mg
- Weight of thymus [3, 5]: 86.86 ± 16.14 mg
Structure (SMILES): CCCCCCCCCCCCCCCCCCCCCCCCCCCCCCO [352B, triacontanol]
- antitumor effect (summary in words) (murine hepatoma H22 [1]; summary of the above tests (H22, Lewis lung cancer, C26)): prominent antitumor effect
- Weight of the tumor (murine hepatoma H22 [2]; 50 mg/kg (low dosage), gavage): 0.72 ± 0.38 g
- Inhibition rate (%) (murine hepatoma H22 [2]; 50 mg/kg (low dosage), gavage, compared with the menstruum control group): 48.13%
- Weight of the tumor (murine hepatoma H22 [2]; [4]): 0.57 ± 0.28 g
- Inhibition rate (%) (murine hepatoma H22 [2]; 100 mg/kg (middle dosage), gavage, compared with the menstruum control group): 58.95%
- Weight of the tumor (murine hepatoma H22 [2]; [5]): 0.49 ± 0.25 g
- Inhibition rate (%) (murine hepatoma H22 [2]; 150 mg/kg (high dosage), gavage, compared with the menstruum control group): 64.59%
- effect to the important immune organ (thymus and spleen) ([3]; summary in words): hasn't obvious effect to the important immune organ

Structure (SMILES): N.N.[Cl][Pt][Cl] [DDP]
- Weight of the animal (g) at last (murine hepatoma H22 [1]; 7 mg/kg/d, igx2): 21.4/25.4 g
- Weight of the tumor (g) X ± SD (murine hepatoma H22 [1]; 7 mg/kg/d, igx2): 1.269 ± 0.13 g
- Inhibition rate (%) (murine hepatoma H22 [1]; 7 mg/kg/d, igx2, vs negative control group): 91.0%
- Weight of the animal (g) at last (Lewis lung cancer; ipx2): 19.2/20.9 g
- Weight of the tumor (g) X ± SD (Lewis lung cancer; ipx2): 0.278 ± 0.14 g
- Inhibition rate (%) (Lewis lung cancer; [6]): 89.00%
- Weight of the tumor (murine hepatoma H22 [2]; 0.001 mg/kg): 0.31 ± 0.19 g
- Inhibition rate (%) (murine hepatoma H22 [2]; 0.001 mg/kg, compared with the NS control group): 79.76%
- Spleen index (mg/10 g body weight) ([3]; 0.001 mg/kg): 46 ± 8.18 mg/10 g body weight
- Thymus index (mg/10 g body weight) ([3]; 0.001 mg/kg): 30.7 ± 8.06 mg/10 g body weight
- Weight of spleen ([3]; 0.001 mg/kg): 88.90 ± 27.79 mg
- Weight of thymus ([3]; 0.001 mg/kg): 59.61 ± 22.45 mg
- Weight of the animal (g) at last (intestinal cancer C26; ipx2): 19.1/24.1 g
- Weight of the tumor (g) X ± SD (intestinal cancer C26; ipx2): 0.346 ± 0.13 g
- Inhibition rate (%) (intestinal cancer C26; [6]): 86.99%
